B1: iFAST: FAST variant with isoleucine at position 107 (SEQ ID NO: 16); its Nter fragment is SEQ ID NO: 30 (protein)
chain: MEHVAFGSEDIENTLAKMDDGQLDGLAFGAIQLDGDGNILQYNAAEGDITGRDPKQVIGKNFFKDVAPGTDSPEFYGKFKEGVASGNLNTMFEWMIPTSRGPTKVKIHMKKALSGDSYWVFVKRV
modifications: functional PYP

Tests used:
NFAST = target: T1, NFAST (Halorhodospira halophila, UniProt P16113, C69G/D97P/F96I/M100R/Q99S/T101G/T95M/Y94W/Y98T); assay: Thermodynamic dissociation constants of NFAST:CFASTn couples in the presence of fluorogen (plate reader, one-site specific binding fit); conditions: synthetic CFASTn peptide and purified NFAST
T1 construct: His tag (N); made in house; host or cells: Rosetta (DE3) pLysS E. coli
T1 sequence (P16113 1-114 C69G/Y94W/T95M/F96I/D97P/Y98T/Q99S/M100R/T101G): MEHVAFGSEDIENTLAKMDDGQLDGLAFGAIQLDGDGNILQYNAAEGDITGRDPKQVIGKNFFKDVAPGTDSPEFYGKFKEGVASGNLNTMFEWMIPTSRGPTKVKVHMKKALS
Procedure: In one embodiment, the thermodynamic dissociation constant KD is determined by spectrofluorometric titration as described in the Examples.
Expression vectors were transformed in Rosetta (DE3) pLysS E. coli (NEW ENGLAND BIOLABS®). Cells were grown at 37° C. in LB medium complemented with 50 μg/mL kanamycin and 34 μg/mL chloramphenicol to OD600 nm 0.6. Expression was induced for 4 hours by adding isopropyl β-D-1-thiogalactopyranoside (IPTG) to a final concentration of 1 mM. Cells were harvested by centrifugation (4,000×g for 20 min at 4° C.) and frozen. The cell pellet was resuspended in lysis buffer (phosphate buffer 50 mM, NaCl 150 mM, MgCl2 2.5 mM, protease inhibitor, DNase, pH 7.4) and sonicated (5 min at 20% of amplitude, 3 sec on, 1 sec off). The lysate was incubated for 2 hours at 4° C. to allow DNA digestion by DNase. Cellular fragments were removed by centrifugation (9200×g for 1 hour at 4° C.). The supernatant was incubated overnight at 4° C. under gentle agitation with Ni-NTA agarose beads in phosphate buffered saline (PBS) (sodium phosphate 50 mM, NaCl 150 mM, pH 7.4) complemented with 10 mM imidazole. Beads were washed with 20 volumes of PBS containing 20 mM imidazole, and with 5 volumes of PBS complemented with 40 mM imidazole. His-tagged proteins were eluted with 5 volumes of PBS complemented with 0.5 M imidazole. The buffer was exchanged to PBS (50 mM phosphate, 150 mM NaCl, pH 7.4) using PD-10 desalting columns.
Thermodynamic dissociation constants for NFAST:CFASTn (n=8 to 11) couples were determined using peptides synthesized for CFASTn (n=8 to 11) and recombinantly purified NFAST. The affinity for NFAST:CFAST11 in the presence of 10 μM HMBR was determined independently from a minimum of three different purifications of NFAST. NFAST:CFAST11 was then run in parallel as an internal control for the determination of the other NFAST-CFAST combinations, which were all performed on the same day with the same preparation of NFAST. Thermodynamic dissociation constants were determined with a Spark 10M plate reader (TECAN®) and fit in Prism 6 to a one-site specific binding model.

HEK 293T cells = assay: Relative in-cell brightness of split-FAST after rapamycin-induced FRB-FKBP complementation; type: cell-based, human; conditions: FIG. 4; for relative in-cell brightness (fluorescence observed) by C-terminal fragment: FRB-NFAST + FKBP-CFASTn, any of HMBR, HBR-3,5DM, HBR-30M, HBR-3,5DOM
Source text: FIGS. 4A-4D are a set of histograms showing the relative in-cell brightness of various split-FAST with different fluorogenic HBR analogs as indicated (4A: HMBR, 4B: HBR-3,5DM, 4C: HBR-30M, and 4D: HBR-3,5DOM) in function of the C-terminal fragment CFASTn (n=11, 10 or 9) and the N-terminal fragment used. The iFAST label indicates when NFAST from iFAST (i.e., the first PYP fragment according to the invention consisting of the amino acid sequence NFAST with an isoleucine at position 107 instead of a valine as set forth in SEQ ID NO: 30) was used. If absent, NFAST from FAST was used (i.e., the first PYP fragment according to the invention consisting of the amino acid sequence as set forth in SEQ ID NO: 23). CFAST11, CFAST10 and CFAST9 correspond to the second PYP fragment according to the invention consisting of the amino acid sequence as set forth in SEQ ID NO: 34, SEQ ID NO: 42 and SEQ ID NO: 43, respectively. NFAST fragments were fused to FRB and CFAST fragments were fused to FKBP. Complementation was induced by addition of rapamycin. Split-FAST fluorescence was normalized by expression level using the fluorescence of co-expressed fluorescent proteins.
HEK 293T cells were seeded in ibidi μDish microscopy dishes and 24 hours prior to imaging were co-transfected with plasmids encoding CMV-FRB-NFAST (or NFAST(V107I))-P2A-mCherry (or EGFP)) and CMV-FKBP-CFASTn (n=11, 10 or 9). The cells were imaged before and after addition of 500 nM rapamycin.

HEK293 cells = assay: Photobleaching / photostability of split-FAST:HMBR in cells by confocal microscopy; type: cell-based, human; conditions: 10 μM HMBR, 488 nm excitation, rapamycin-treated cells, FAST as control, FIG. 5E
Procedure: FIGS. 5A-5G illustrate the detection of rapamycin-induced FRB-FKBP dimerization with the complementation system of the invention. 5A and 5B show HEK293T cells co-expressing FKBP-NFAST and FRB-CFASTn (n=10 or 11) which were labeled with 5 μM HMBR (5A) or 10 μM HBR-3,5DOM (5B) and imaged before and after addition of 100 nM rapamycin. Scale bars 10 μm. […] Cells expressing FRB-NFAST and FKBP-CFASTn (n=10 or 11) were treated with rapamycin to form split-FAST11 and split-FAST10. Cells expressing FAST were used as control. HMBR concentration was 10 μM. Excitation at 488 nm at 6.3 kW/cm2. Six cells were analyzed per condition. […] Scale bars 20 μm. […] Scale bars 20 μm.
Photobleaching measurements for HMBR were carried out at 10 μM fluorogen at 488 nm excitation (4.6 kW/cm2, […] pixel dwell); FAST was used as a control. Samples were imaged continuously for 1000 images at a 1 frame per second frequency.

[1] = KD of NFAST-CFASTn 10 μM HBR-3,5-DOM, in the presence of 10 μM HBR-3,5-DOM
[2] = KD of NFAST-CFASTn 10 μM HMBR, in the presence of 10 μM HMBR

Molecule	Kd (NFAST; [1]) [µM]	Kd (NFAST; [2]) [µM]	relative in-cell brightness (fluorescence observed) by C-terminal fragment (HEK 293T cells)	photostability of split-FAST:fluorogen assembly in cells (HEK293 cells)	fluorescence of the Nter fragment of iFAST + CFAST compared with NFAST + CFAST (HEK 293T cells; HEK 293T cells)
Ac-GDSYWVFVKR-NH2 [CFAST10]	6.2 ± 0.5	0.95 ± 0.08	lower	as photostable as the regular FAST:fluorogen complex	
Ac-GDSYWVFVKRV-NH2 [CFAST11]	1.4 ± 0.2	0.21 ± 0.05	highest	as photostable as the regular FAST:fluorogen complex	
Ac-GDSYWVFVK-NH2 [CFAST9]	25 ± 1	5.7 ± 0.06	lowest		
Ac-GDSYWVFV-NH2 [CFAST8]		21 ± 4			
B1					similar
